In the NIST ThermoML archive (doi:10.1021/je050343i):
Numbers after ± are expanded uncertainties.

Assay: activity coefficient (dimensionless); of the first substance listed, at infinite dilution; xn = mol fraction of the nth substance listed
Conditions: Liquid, Chromatography, x1 = 0

Row | SMILES | activity coefficient (249.95 K) | activity coefficient (269.95 K) | activity coefficient (289.9 K) | activity coefficient (309.99 K) | activity coefficient (330 K) | activity coefficient (250 K) | activity coefficient (269.96 K) | activity coefficient (289.99 K) | activity coefficient (249.92 K) | activity coefficient (270.04 K) | activity coefficient (249.98 K) | activity coefficient (249.94 K) | activity coefficient (250.01 K)
1 | CC(F)F [1,1-difluoroethane] + C=C(C)CCO | 4.94 ± 0.34 | 4.53 ± 0.31 | 4.12 ± 0.28 | 3.74 ± 0.25 | 3.5 ± 0.24 | – | – | – | – | – | – | – | –
2 | CC(F)F [1,1-difluoroethane] + C=CC(C)(C)O | – | – | – | 2.89 ± 0.2 | 2.47 ± 0.17 | 4.68 ± 0.32 | 3.99 ± 0.27 | 3.39 ± 0.23 | – | – | – | – | –
3 | C=CC=C [1,3-butadiene] + C=C(C)CCO | – | – | – | 2.56 ± 0.17 | 2.45 ± 0.17 | – | – | 2.65 ± 0.18 | 2.76 ± 0.19 | 2.69 ± 0.18 | – | – | –
4 | C=CC=C [1,3-butadiene] + C=CC(C)(C)O | – | 2.36 ± 0.16 | – | 2.05 ± 0.14 | 1.88 ± 0.13 | – | – | 2.22 ± 0.15 | – | – | 2.43 ± 0.17 | – | –
5 | C=CCC [1-butene] + C=C(C)CCO | – | – | – | 3.28 ± 0.22 | 3.13 ± 0.21 | – | – | 3.4 ± 0.23 | 3.57 ± 0.24 | 3.47 ± 0.24 | – | – | –
6 | C=CCC [1-butene] + C=CC(C)(C)O | – | 2.65 ± 0.18 | – | 2.37 ± 0.16 | 2.2 ± 0.15 | – | – | 2.52 ± 0.17 | – | – | 2.74 ± 0.19 | – | –
7 | CC(C)C [2-methylpropane] + C=C(C)CCO | – | – | – | 4.54 ± 0.31 | 4.29 ± 0.29 | – | – | 4.73 ± 0.32 | 5.27 ± 0.36 | 4.98 ± 0.34 | – | – | –
8 | CC(C)C [2-methylpropane] + C=CC(C)(C)O | – | 3.42 ± 0.23 | – | 3.06 ± 0.21 | 2.83 ± 0.19 | – | – | 3.27 ± 0.22 | – | – | 3.56 ± 0.24 | – | –
9 | C=C(C)C [2-methylpropene] + C=C(C)CCO | – | – | – | 3.21 ± 0.22 | 3.04 ± 0.21 | – | – | 3.32 ± 0.23 | 3.49 ± 0.24 | 3.41 ± 0.23 | – | – | –
10 | C=C(C)C [2-methylpropene] + C=CC(C)(C)O | – | 2.61 ± 0.18 | – | 2.31 ± 0.16 | 2.15 ± 0.15 | – | – | 2.47 ± 0.17 | – | – | 2.72 ± 0.19 | – | –
11 | C/C=C/C [(E)-2-butene] + C=C(C)CCO | – | – | – | 3.27 ± 0.22 | 3.12 ± 0.21 | – | – | 3.35 ± 0.23 | 3.55 ± 0.24 | 3.42 ± 0.23 | – | – | –
12 | C/C=C/C [(E)-2-butene] + C=CC(C)(C)O | – | 2.62 ± 0.18 | – | 2.35 ± 0.16 | 2.2 ± 0.15 | – | – | 2.51 ± 0.17 | – | – | 2.73 ± 0.19 | – | –
13 | C/C=C\C [(Z)-2-butene] + C=C(C)CCO | 3.26 ± 0.22 | 3.2 ± 0.22 | 3.08 ± 0.21 | 2.9 ± 0.2 | 2.77 ± 0.19 | – | – | – | – | – | – | – | –
14 | C/C=C\C [(Z)-2-butene] + C=CC(C)(C)O | – | – | – | 2.23 ± 0.15 | 2.05 ± 0.14 | 2.55 ± 0.17 | 2.48 ± 0.17 | 2.36 ± 0.16 | – | – | – | – | –
15 | CCCC [butane] + C=C(C)CCO | – | – | – | 4.18 ± 0.28 | 3.99 ± 0.27 | – | – | 4.41 ± 0.3 | 4.89 ± 0.33 | 4.61 ± 0.31 | – | – | –
16 | CCCC [butane] + C=CC(C)(C)O | – | 3.22 ± 0.22 | – | 2.87 ± 0.2 | 2.65 ± 0.18 | – | – | 3.08 ± 0.21 | – | – | 3.3 ± 0.22 | – | –
17 | CCCl [chloroethane] + C=C(C)CCO | – | 2.35 ± 0.16 | 2.32 ± 0.16 | 2.23 ± 0.15 | 1.99 ± 0.14 | – | – | – | – | – | – | 2.49 ± 0.17 | –
18 | CCCl [chloroethane] + C=CC(C)(C)O | – | – | – | 1.69 ± 0.11 | 1.56 ± 0.1 | – | 2.16 ± 0.15 | 1.96 ± 0.13 | – | – | – | – | 2.28 ± 0.16
19 | COC [dimethyl ether] + C=C(C)CCO | 1.28 ± 0.08 | 1.23 ± 0.08 | 1.2 ± 0.08 | 1.17 ± 0.07 | 1.15 ± 0.07 | – | – | – | – | – | – | – | –
20 | COC [dimethyl ether] + C=CC(C)(C)O | – | – | – | 0.72 ± 0.05 | 0.74 ± 0.05 | – | 0.67 ± 0.05 | 0.7 ± 0.05 | – | – | – | – | 0.62 ± 0.04
21 | CCC [propane] + C=C(C)CCO | – | – | – | 3.86 ± 0.26 | 3.7 ± 0.25 | – | – | 4.1 ± 0.28 | 4.36 ± 0.3 | 4.19 ± 0.29 | – | – | –
22 | CCC [propane] + C=CC(C)(C)O | – | 2.97 ± 0.2 | – | 2.7 ± 0.18 | 2.54 ± 0.17 | – | – | 2.86 ± 0.19 | – | – | 3.08 ± 0.21 | – | –
23 | C=CC [propene] + C=C(C)CCO | – | – | – | 2.92 ± 0.2 | 2.8 ± 0.19 | – | – | 2.99 ± 0.2 | 3.07 ± 0.21 | 3.04 ± 0.21 | – | – | –
24 | C=CC [propene] + C=CC(C)(C)O | – | 2.38 ± 0.16 | – | 2.17 ± 0.15 | 2.05 ± 0.14 | – | – | 2.3 ± 0.16 | – | – | 2.46 ± 0.17 | – | –
